{
  "source": "PubChem BioAssay (NCI)",
  "assay_in_all_cases": "NCI tumour cell line growth inhibition, 48 h",
  "key": {"SK-MEL-5 melanoma": {"system": "SK-MEL-5 melanoma"}, "TK-10 renal": {"system": "TK-10 renal"}, "OVCAR-8 ovarian": {"system": "OVCAR-8 ovarian"}, "SK-MEL-28 melanoma": {"system": "SK-MEL-28 melanoma"}, "SN12C renal": {"system": "SN12C renal"}, "SK-OV-3 ovarian": {"system": "SK-OV-3 ovarian"}, "MALME-3M melanoma": {"system": "MALME-3M melanoma"}, "COLO 205 colon": {"system": "COLO 205 colon"}, "KM12 colon": {"system": "KM12 colon"}, "CAKI-1 renal": {"system": "CAKI-1 renal"}, "SF-539 CNS": {"system": "SF-539 CNS"}, "HCC-2998 colon": {"system": "HCC-2998 colon"}, "SNB-19 CNS": {"system": "SNB-19 CNS"}, "A549 NSCLC": {"system": "A549 NSCLC"}, "UACC-62 melanoma": {"system": "UACC-62 melanoma"}, "SR leukemia": {"system": "SR leukemia"}, "T-47D breast": {"system": "T-47D breast"}, "CCRF-CEM leukemia": {"system": "CCRF-CEM leukemia"}, "786-0 renal": {"system": "786-0 renal"}, "NCI-H460 lung": {"system": "NCI-H460 lung"}, "NCI-H522 lung": {"system": "NCI-H522 lung"}, "SF-295 CNS": {"system": "SF-295 CNS"}, "BT-549 breast": {"system": "BT-549 breast"}, "RXF 393 renal": {"system": "RXF 393 renal"}, "LOX IMVI melanoma": {"system": "LOX IMVI melanoma"}, "A498 renal": {"system": "A498 renal"}, "SW-620 colon": {"system": "SW-620 colon"}, "U251 CNS": {"system": "U251 CNS"}},
  "note": "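96-well plates; 48 h exposure; 5 concentrations. Endpoints by linear interpolation between flanking doses. Not reached: highest tested concentration assigned. GI50: concentration for 50% inhibition of growth. At the TGI there is no net growth.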",
  "data": [
    {"smiles": "Cc1ccc(C2=Nn3c(nnc3-c3ccccc3)SC2)cc1", "values": [
      {"measurement": "GI50", "setting": "SK-MEL-5 melanoma", "result": 595, "unit": "nM"},
      {"measurement": "TGI", "setting": "SK-MEL-5 melanoma", "result": "> 100000", "unit": "nM"},
      {"measurement": "GI50", "setting": "TK-10 renal", "result": 54100, "unit": "nM"},
      {"measurement": "TGI", "setting": "TK-10 renal", "result": "> 100000", "unit": "nM"},
      {"measurement": "GI50", "setting": "OVCAR-8 ovarian", "result": 1780, "unit": "nM"},
      {"measurement": "TGI", "setting": "OVCAR-8 ovarian", "result": 84600, "unit": "nM"},
      {"measurement": "GI50", "setting": "SK-MEL-28 melanoma", "result": 27400, "unit": "nM"},
      {"measurement": "TGI", "setting": "SK-MEL-28 melanoma", "result": "> 100000", "unit": "nM"},
      {"measurement": "GI50", "setting": "SN12C renal", "result": 799, "unit": "nM"},
      {"measurement": "TGI", "setting": "SN12C renal", "result": "> 100000", "unit": "nM"},
      {"measurement": "GI50", "setting": "SK-OV-3 ovarian", "result": 1760, "unit": "nM"},
      {"measurement": "TGI", "setting": "SK-OV-3 ovarian", "result": "> 100000", "unit": "nM"},
      {"measurement": "GI50", "setting": "MALME-3M melanoma", "result": "> 100000", "unit": "nM"},
      {"measurement": "TGI", "setting": "MALME-3M melanoma", "result": "> 100000", "unit": "nM"},
      {"measurement": "GI50", "setting": "COLO 205 colon", "result": 492, "unit": "nM"},
      {"measurement": "TGI", "setting": "COLO 205 colon", "result": 24500, "unit": "nM"},
      {"measurement": "GI50", "setting": "KM12 colon", "result": 17300, "unit": "nM"},
      {"measurement": "TGI", "setting": "KM12 colon", "result": "> 100000", "unit": "nM"},
      {"measurement": "GI50", "setting": "CAKI-1 renal", "result": 750, "unit": "nM"},
      {"measurement": "TGI", "setting": "CAKI-1 renal", "result": "> 100000", "unit": "nM"},
      {"measurement": "GI50", "setting": "SF-539 CNS", "result": 925, "unit": "nM"},
      {"measurement": "TGI", "setting": "SF-539 CNS", "result": 4760, "unit": "nM"},
      {"measurement": "GI50", "setting": "HCC-2998 colon", "result": 1040, "unit": "nM"},
      {"measurement": "TGI", "setting": "HCC-2998 colon", "result": "> 100000", "unit": "nM"},
      {"measurement": "GI50", "setting": "SNB-19 CNS", "result": 3500, "unit": "nM"},
      {"measurement": "TGI", "setting": "SNB-19 CNS", "result": "> 100000", "unit": "nM"},
      {"measurement": "GI50", "setting": "A549 NSCLC", "result": 702, "unit": "nM"},
      {"measurement": "TGI", "setting": "A549 NSCLC", "result": "> 100000", "unit": "nM"},
      {"measurement": "GI50", "setting": "UACC-62 melanoma", "result": 536, "unit": "nM"},
      {"measurement": "TGI", "setting": "UACC-62 melanoma", "result": "> 100000", "unit": "nM"},
      {"measurement": "GI50", "setting": "SR leukemia", "result": 251, "unit": "nM"},
      {"measurement": "TGI", "setting": "SR leukemia", "result": "> 100000", "unit": "nM"},
      {"measurement": "GI50", "setting": "T-47D breast", "result": 869, "unit": "nM"},
      {"measurement": "TGI", "setting": "T-47D breast", "result": "> 100000", "unit": "nM"},
      {"measurement": "GI50", "setting": "CCRF-CEM leukemia", "result": 1660, "unit": "nM"},
      {"measurement": "TGI", "setting": "CCRF-CEM leukemia", "result": "> 100000", "unit": "nM"},
      {"measurement": "GI50", "setting": "786-0 renal", "result": 6020, "unit": "nM"},
      {"measurement": "TGI", "setting": "786-0 renal", "result": "> 100000", "unit": "nM"},
      {"measurement": "GI50", "setting": "NCI-H460 lung", "result": 389, "unit": "nM"},
      {"measurement": "TGI", "setting": "NCI-H460 lung", "result": 50000, "unit": "nM"},
      {"measurement": "GI50", "setting": "NCI-H522 lung", "result": 440, "unit": "nM"},
      {"measurement": "TGI", "setting": "NCI-H522 lung", "result": 2540, "unit": "nM"},
      {"measurement": "GI50", "setting": "SF-295 CNS", "result": 845, "unit": "nM"},
      {"measurement": "TGI", "setting": "SF-295 CNS", "result": "> 100000", "unit": "nM"},
      {"measurement": "GI50", "setting": "BT-549 breast", "result": 385, "unit": "nM"},
      {"measurement": "TGI", "setting": "BT-549 breast", "result": "> 100000", "unit": "nM"},
      {"measurement": "GI50", "setting": "RXF 393 renal", "result": 1870, "unit": "nM"},
      {"measurement": "TGI", "setting": "RXF 393 renal", "result": 19700, "unit": "nM"},
      {"measurement": "GI50", "setting": "LOX IMVI melanoma", "result": 838, "unit": "nM"},
      {"measurement": "TGI", "setting": "LOX IMVI melanoma", "result": "> 100000", "unit": "nM"},
      {"measurement": "GI50", "setting": "A498 renal", "result": 445, "unit": "nM"},
      {"measurement": "TGI", "setting": "A498 renal", "result": 5230, "unit": "nM"},
      {"measurement": "GI50", "setting": "SW-620 colon", "result": 378, "unit": "nM"},
      {"measurement": "TGI", "setting": "SW-620 colon", "result": "> 100000", "unit": "nM"},
      {"measurement": "GI50", "setting": "U251 CNS", "result": 528, "unit": "nM"},
      {"measurement": "TGI", "setting": "U251 CNS", "result": "> 100000", "unit": "nM"}
    ]}
  ]
}
